Measured values published in patent US7501538B2, “Aryl and heteroaryl compounds, compositions and methods of use” (TransTech Pharma, Inc., priority 2003, dated 2009).
Where two headings read alike, the source gives them in different places.

What was measured:
[1] = target: receptors for EPO; conditions: cited from earlier work
[2] = test system: UT-7 cells (UT7/EPO); assay: Cell Proliferation Assay (AlamarBlue), UT-7; type: cell-based; conditions: UT-7 assay, at or below 1000 micromolar compound concentration
Method: UT-7 and FDC-P1 cell proliferation was assessed by AlamarBlue (BioSource International Inc., Camarillo, Calif. 93012, USA). Briefly, the cells were plated into 96-well Costar cell culture plate (Corning Incorporated, Corning, N.Y. 14831, USA) at 7000 cells/well and 4000 cells/well for UT7/EPO and FDC-P1 cell line, respectively. The test compound and/or vehicle was added to each well with a final concentration of 1% DMSO and incubated in an atmosphere of 5% CO2 at 37° C. for 66 hours. After a further 6 hour incubation in the presence of AlamarBlue, fluorescent intensity was measured using a SpectraMax Gemini (Molecular Devices, Sunnyvale, Calif. 94089, USA) plate reader, with excitation at 530 nm and emission at 590 nm. The Percent Increase=((RFU Test-RFU Medium)/(RFU Vehicle-RFU Medium)-1)*100. Recombinant human EPO (Research Diagnostics, Inc., Flanders, N.J. 07836, USA) was used in the assay as a positive control.

Molecule | Kd ([1]; high affinity receptor, read-out: Kd, high affinity receptors for EPO) [nM] | Kd ([1]; low affinity receptor, read-out: Kd, low affinity receptors for EPO) [nM] | cell proliferation (Percent Increase) [2] [%]
EPO: 165 amino acid, 34 kilodalton (kDa) glycoprotein hormone regulating red blood cell production | 0.075 to 0.1 | 0.22 to 0.8 | –
CC(C)(C)c1ccc(COc2ccc(C[C@H](NC(=O)c3cc(Cl)ccc3NCc3cccc4ccccc34)C(=O)O)cc2)cc1 [Example 4, (2S)-3-[4-(4-tert-butyl-benzyloxy)-phenyl]-2-{5-chloro-2-[(naphthalen-1-ylmethyl)-amino]-benzoylamino}-propionic acid] | – | – | < 20
